This is an account of results in patent US8633205B2, “Substituted pyrrolo[2,3-d]pyrimidines as inhibitors of protein kinases” (Vertex Pharmaceuticals Incorporated, priority 2005, dated 2014).

As usually defined, the Ki is the dissociation constant of the complex between target and ligand, obtained from inhibition or displacement.

What all share (type): biochemical
The target of one assay is T1, JAK3 (Homo sapiens, UniProt P52333).
T1 sequence (P52333 1-1124): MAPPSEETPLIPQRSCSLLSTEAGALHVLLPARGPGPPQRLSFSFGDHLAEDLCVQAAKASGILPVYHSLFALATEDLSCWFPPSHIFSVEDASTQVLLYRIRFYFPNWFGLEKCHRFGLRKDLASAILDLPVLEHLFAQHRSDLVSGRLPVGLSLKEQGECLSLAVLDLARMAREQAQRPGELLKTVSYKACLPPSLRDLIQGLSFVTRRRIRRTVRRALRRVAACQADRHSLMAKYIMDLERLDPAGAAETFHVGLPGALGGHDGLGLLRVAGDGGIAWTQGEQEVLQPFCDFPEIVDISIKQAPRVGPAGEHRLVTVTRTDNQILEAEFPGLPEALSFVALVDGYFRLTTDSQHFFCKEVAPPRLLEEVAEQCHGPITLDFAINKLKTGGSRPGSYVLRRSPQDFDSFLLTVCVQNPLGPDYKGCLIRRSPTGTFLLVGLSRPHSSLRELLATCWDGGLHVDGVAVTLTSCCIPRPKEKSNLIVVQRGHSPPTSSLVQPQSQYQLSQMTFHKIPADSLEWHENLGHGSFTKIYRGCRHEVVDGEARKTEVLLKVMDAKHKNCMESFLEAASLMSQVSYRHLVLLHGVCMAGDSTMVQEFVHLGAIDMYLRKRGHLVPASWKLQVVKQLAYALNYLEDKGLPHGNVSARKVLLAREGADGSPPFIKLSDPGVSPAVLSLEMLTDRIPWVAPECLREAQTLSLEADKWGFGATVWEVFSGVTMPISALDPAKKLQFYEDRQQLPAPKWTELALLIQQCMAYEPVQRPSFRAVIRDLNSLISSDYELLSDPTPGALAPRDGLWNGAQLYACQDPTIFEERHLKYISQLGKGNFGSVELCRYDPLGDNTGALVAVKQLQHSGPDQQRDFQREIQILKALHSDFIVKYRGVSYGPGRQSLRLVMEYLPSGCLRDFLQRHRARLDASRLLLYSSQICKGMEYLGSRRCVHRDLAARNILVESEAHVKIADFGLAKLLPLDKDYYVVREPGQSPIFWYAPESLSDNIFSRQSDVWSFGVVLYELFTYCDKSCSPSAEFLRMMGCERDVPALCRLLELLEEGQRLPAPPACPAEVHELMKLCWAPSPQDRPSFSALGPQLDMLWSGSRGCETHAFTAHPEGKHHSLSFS
Kind of assay: JAK3 Inhibition Assay. The note with it: 1 μM poly(Glu)4Tyr, 5 μM ATP, 1 nM JAK3, 25 °C; read-out: JAK3 enzyme inhibition (Ki). The procedure: (§1) Compounds were screened for their ability to inhibit JAK using the […] below. Reactions were carried out in a kinase buffer containing 100 mM HEPES (pH 7.4), 1 mM DTT, 10 mM MgCl2, 25 mM NaCl, and 0.01% BSA.
(§2) Substrate concentrations in the assay were 5 μM ATP (200 uCi/μmole ATP) 1 μM poly(Glu)4Tyr. Reactions were carried out at 25 ° C. and 1 nM JAK3.
(§3) To each well of a 96 well polycarbonate plate was added 1.5 μl of a JAK3 inhibitor along with 50 μl of kinase buffer containing 2 μM poly(Glu)4Tyr and 10 μM ATP. This was then mixed and 50 μl of kinase buffer 2 nM JAK3 enzyme was added to start the reaction. After 20 minutes at room temperature (25C), the reaction was stopped with 50 μl of 20% trichloroacetic acid (TCA) that also contained 0.4 mM ATP. The entire contents of each well were then transferred to a 96 well glass fiber filter plate using a TomTek Cell Harvester. After washing, 60 μl of scintillation fluid was added and ^33P incorporation detected on a Perkin Elmer TopCount.

Another assay concerns the target T2, ROCK (Homo sapiens, UniProt Q13464).
T2 construct: ROCK I (AA 6-553)
In words: ROCK Inhibition Assays. The note with it: read-out: ROCK enzyme inhibition (Ki). The procedure:
Compounds are screened for their ability to inhibit ROCK I (AA 6-553) activity using a standard coupled enzyme system (Fox et al. Protein Sci. 7: 2249, 1998). Reactions are carried out in a solution containing 100 mM HEPES (pH 7.5), 10 mM MgCl2, 25 mM NaCl, 2 mM DTT and 1.5% DMSO. Final substrate concentrations in the assay are 45 μM ATP (Sigma Chemicals, St Louis, Mo.) and 200 μM peptide (American Peptide, Sunnyvale, Calif.). Reactions are carried out at 30 ° C. and 45 nM ROCK I. Final concentrations of the components of the coupled enzyme system are 2.5 mM phosphoenolpyruvate, 350 μM NADH, 30 μg/ml pyruvate kinase and 10 μg/ml lactate dehydrogenase.
Compounds are screened for their ability to inhibit ROCK using a standard radioactive enzyme assay. Assays are carried out in a solution containing 100 mM HEPES (pH 7.5), 10 mM MgCl2, 25 mM NaCl, 2 mM DTT and 1.5% DMSO. Final substrate concentrations in the assay are 13 μM [γ-^33P] ATP (25 mCi ^33P ATP/mmol ATP, Perkin Elmer, Cambridge, Mass./Sigma Chemicals, St Louis, Mo.) and 27 μM Myelin Basic Protein (MBP). Final enzyme concentration in the assay is 5 nM ROCK. Assays are carried out at room temperature. 1.5 μl of DMSO stock containing serial dilutions of the compound of the present invention (concentrations ranging from 10 μM to 2.6 nM) is placed in a 96 well plate. 50 μl of Solution 1 (100 mM HEPES (pH 7.5), 10 mM MgCl2, […] [γ-^33P] ATP) is added to the plate. The reaction is initiated by addition of 50 μl of Solution 2 (100 mM HEPES (pH 7.5), 10 mM MgCl2, 4 mM DTT, […] and 10 nM ROCK). After 2 hours the reaction is quenched with 50 μL of 30% trichloroacetic acid (TCA, Fisher) containing 9 mM ATP. Transfer of 140 μL of the quenched reaction to a glass fiber filter plate (Corning, Cat. No.3511) is followed by washing 3 times with 5% TCA. 50 μL of Optima Gold scintillation fluid (Perkin Elmer) is added and the plates are counted on a Top Count (Perkin Elmer). After removing mean background values for all of the data points the data is fit using Prism software to obtain a Ki(app).

For another assay, the target named is PKA (Homo sapiens, UniProt P17612). Kind of assay: PKA Inhibition Assay (coupled enzyme assay). The note with it: 50 μM ATP, 80 μM Kemptide, 18 nM PKA, 30 °C. The method, then: Compounds were screened for their ability to inhibit PKA using a standard coupled enzyme assay (Fox et al., Protein Sci, 1998, 7, 2249). Assays were carried out in a mixture of 100 mM HEPES (pH 7.5), 10 mM MgCl2, 25 mM NaCl, 1 mM DTT and 3% DMSO. Final substrate concentrations in the assay were 50 μM ATP (Sigma Chemicals) and 80 μM peptide (Kemptide, American Peptide, Sunnyvale, Calif.). Assays were carried out at 30 ° C. and 18 nM PKA. Final concentrations of the components of the coupled enzyme system were 2.5 mM phosphoenolpyruvate, 300 μM NADH, 30 μg/ml pyruvate kinase and 10 μg/ml lactate dehydrogenase.
An assay stock buffer solution was prepared containing all of the reagents listed above, with the exception of ATP, and the test compound of the present invention. 55 μl of the stock solution was placed in a 96 well plate followed by addition of 2 μl of DMSO stock containing serial dilutions of the test compound of the present invention (typically starting from a final concentration of 5 μM). The plate was preincubated for 10 minutes at 30° C. and the reaction initiated by addition of 5 μl of ATP (final concentration 50 μM). Initial reaction rates were determined with a Molecular Devices SpectraMax Plus plate reader over a 15 minute time course. IC50 and Ki data were calculated from non-linear regression analysis using the Prism software package (GraphPad Prism version 3.0a for Macintosh, GraphPad Software, San Diego, Calif., USA).

A further assay concerns the target JAK2 (Homo sapiens, UniProt O60674). Kind of assay: JAK2 Inhibition Assay. Conditions: 15 μM poly(Glu)4Tyr, 12 μM ATP; read-out: JAK2 enzyme inhibition (Ki). The method, then:
as §1, §2, §3
As described above in Example 11 except that JAK-2 enzyme is used, the final poly(Glu)4Tyr concentration is 15 μM, and final ATP concentration is 12 μM.

Where only a bound is given, the exact number is not on record here.

Chain of JAK2 (O60674 whole entry): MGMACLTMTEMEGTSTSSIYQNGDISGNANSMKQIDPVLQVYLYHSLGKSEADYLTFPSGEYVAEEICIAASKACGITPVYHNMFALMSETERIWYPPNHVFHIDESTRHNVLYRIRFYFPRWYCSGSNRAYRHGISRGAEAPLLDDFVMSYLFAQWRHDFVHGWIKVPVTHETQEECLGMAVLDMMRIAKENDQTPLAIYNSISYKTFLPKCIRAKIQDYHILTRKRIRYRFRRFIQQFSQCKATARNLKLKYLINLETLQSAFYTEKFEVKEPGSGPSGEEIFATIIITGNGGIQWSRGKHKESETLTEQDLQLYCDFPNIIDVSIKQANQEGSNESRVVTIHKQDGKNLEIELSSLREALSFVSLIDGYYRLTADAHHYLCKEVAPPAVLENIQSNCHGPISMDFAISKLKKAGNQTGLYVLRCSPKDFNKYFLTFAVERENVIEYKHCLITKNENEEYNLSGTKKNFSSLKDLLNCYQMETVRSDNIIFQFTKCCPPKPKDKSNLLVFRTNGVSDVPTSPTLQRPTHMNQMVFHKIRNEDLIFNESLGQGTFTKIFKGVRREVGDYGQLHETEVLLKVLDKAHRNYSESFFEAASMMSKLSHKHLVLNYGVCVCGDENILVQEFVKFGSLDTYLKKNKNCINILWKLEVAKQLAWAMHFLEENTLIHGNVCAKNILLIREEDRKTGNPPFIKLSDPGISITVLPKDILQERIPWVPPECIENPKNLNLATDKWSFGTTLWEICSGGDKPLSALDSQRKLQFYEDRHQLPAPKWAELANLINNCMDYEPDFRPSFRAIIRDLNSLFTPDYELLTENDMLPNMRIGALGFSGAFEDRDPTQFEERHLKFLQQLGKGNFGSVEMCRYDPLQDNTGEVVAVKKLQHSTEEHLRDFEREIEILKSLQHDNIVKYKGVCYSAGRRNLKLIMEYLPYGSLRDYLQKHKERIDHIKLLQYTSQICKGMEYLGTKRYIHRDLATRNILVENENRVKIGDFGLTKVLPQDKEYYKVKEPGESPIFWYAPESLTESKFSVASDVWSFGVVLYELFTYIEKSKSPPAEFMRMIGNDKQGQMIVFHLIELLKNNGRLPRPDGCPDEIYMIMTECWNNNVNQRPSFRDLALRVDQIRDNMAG
T2 sequence (Q13464 6-553): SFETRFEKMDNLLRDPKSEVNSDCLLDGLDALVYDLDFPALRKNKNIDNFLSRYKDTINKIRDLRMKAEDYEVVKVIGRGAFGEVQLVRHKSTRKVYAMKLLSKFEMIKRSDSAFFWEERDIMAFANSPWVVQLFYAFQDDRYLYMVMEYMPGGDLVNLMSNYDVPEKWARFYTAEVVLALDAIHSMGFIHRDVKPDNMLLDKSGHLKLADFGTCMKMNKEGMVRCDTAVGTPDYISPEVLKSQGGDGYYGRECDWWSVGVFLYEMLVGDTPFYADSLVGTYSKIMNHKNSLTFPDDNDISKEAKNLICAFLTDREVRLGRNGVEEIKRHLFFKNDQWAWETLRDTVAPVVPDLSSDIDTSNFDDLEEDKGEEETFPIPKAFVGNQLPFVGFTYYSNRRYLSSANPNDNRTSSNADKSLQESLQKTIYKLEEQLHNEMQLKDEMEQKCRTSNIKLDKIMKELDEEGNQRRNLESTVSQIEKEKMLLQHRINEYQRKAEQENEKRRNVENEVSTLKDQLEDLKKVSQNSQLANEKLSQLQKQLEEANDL

Regarding `C=C(c1ncnc2[nH]ccc12)C1CCCC1` [Compound 18], the Ki at JAK3 is less than 500 nM; on ROCK it was 500 to 5000 nM; on PKA, 500 to 5000 nM; on JAK2, less than 500 nM.

Take `FC(F)(F)c1ccc(/C=C/c2ncnc3[nH]ccc23)cc1` [Compound 7, 4-(4-(trifluoromethyl)styryl)-7H-pyrrolo[2,3-d]pyrimidine]: the Ki at JAK3 is less than 500 nM; at ROCK, 500 to 5000 nM; at PKA it was 500 to 5000 nM; on JAK2, less than 500 nM.

As for `C1=C(c2ncnc3[nH]ccc23)C2CCC1C2` (stereo not shown) [Compound 21], the Ki was less than 500 nM on JAK3, 500 to 5000 nM on ROCK, 500 to 5000 nM on PKA and less than 500 nM on JAK2.

Consider `CC(=O)N1CC=C(c2ncnc3[nH]ccc23)CC1` [Compound 15], for which the Ki on JAK3 was more than 5000 nM; on ROCK, 500 to 5000 nM; on PKA, 500 to 5000 nM; at JAK2, more than 5000 nM.

As for `Clc1ccc(/C=C/c2ncnc3[nH]ccc23)cc1` [Compound 6, 4-(4-chlorostyryl)-7H-pyrrolo[2,3-d]pyrimidine], the Ki on JAK3 is less than 500 nM; at ROCK, 500 to 5000 nM; at PKA, 500 to 5000 nM; at JAK2, less than 500 nM.

For the compound `C=Cc1ncnc2[nH]ccc12` [Compound 14], the Ki at JAK3, at ROCK, on PKA and on JAK2 was 500 to 5000 nM throughout.

With `C1=C(c2ncnc3[nH]ccc23)CCCCC1` [Compound 20], the Ki at JAK3 was less than 500 nM; at ROCK, 500 to 5000 nM; on PKA, 500 to 5000 nM; on JAK2, less than 500 nM.

Turning to `C1=C(c2ncnc3[nH]ccc23)CCCC1` [Compound 2], the Ki was less than 500 nM on JAK3, 500 to 5000 nM at ROCK, 500 to 5000 nM on PKA and less than 500 nM on JAK2.

In the case of `c1nc(CCC2OCCCO2)c2cc[nH]c2n1` [Compound 29], the Ki at JAK3, on ROCK, at PKA and on JAK2 was 500 to 5000 nM in each case.

Turning to `c1nc(C2CCCC2)c2cc[nH]c2n1` [Compound 3, 4-cyclopentyl-7H-pyrrolo[2,3-d]pyrimidine], the Ki at JAK3, on ROCK, on PKA and on JAK2 was 500 to 5000 nM in each case.

As for `C=C(c1ncnc2[nH]ccc12)C1CCCN(C(=O)OC(C)(C)C)C1` (stereo not shown) [Compound 22], the Ki on JAK3, on ROCK, at PKA and on JAK2 was 500 to 5000 nM in each case.

For `Fc1ccc(/C=C/c2ncnc3[nH]ccc23)cc1` [Compound 5, 4-(4-fluorostyryl)-7H-pyrrolo[2,3-d]pyrimidine], the Ki is less than 500 nM on JAK3, 500 to 5000 nM at ROCK, 500 to 5000 nM on PKA and less than 500 nM at JAK2.

Turning to `CC1CCCC=C1c1ncnc2[nH]ccc12` (stereo not shown) [Compound 11], the Ki at JAK3 was less than 500 nM; on ROCK, 500 to 5000 nM; on PKA, 500 to 5000 nM; at JAK2, 500 to 5000 nM.

For `CC(C)(C)OC(=O)N1CC=C(c2ncnc3[nH]ccc23)CC1` [Compound 9], the Ki on JAK3 was less than 500 nM; on ROCK it was 500 to 5000 nM; at PKA it was 500 to 5000 nM; at JAK2, less than 500 nM.

Regarding `N#CCC(=O)N1CC=C(c2ncnc3[nH]ccc23)CC1` [Compound 17], the Ki is 500 to 5000 nM at JAK3, 500 to 5000 nM at ROCK, 500 to 5000 nM on PKA and less than 500 nM on JAK2.

As for `c1nc(CC2CCCCC2)c2cc[nH]c2n1` [Compound 27], the Ki on JAK3 was less than 500 nM; on ROCK, 500 to 5000 nM; on PKA it was 500 to 5000 nM; on JAK2, less than 500 nM.

Take `C1=C(c2ncnc3[nH]ccc23)CCSC1` [Compound 13]: the inhibition constant Ki on JAK3 is less than 500 nM; on ROCK, 500 to 5000 nM; on PKA, 500 to 5000 nM; at JAK2, less than 500 nM.

`CC(C)CCc1ncnc2[nH]ccc12` [Compound 31]: the Ki at JAK3 is less than 500 nM; at ROCK, 500 to 5000 nM; on PKA, 500 to 5000 nM; on JAK2, less than 500 nM.

For `CC(C)(C#N)CCCCc1ncnc2[nH]ccc12` [Compound 30], the Ki on JAK3, at ROCK, at PKA and on JAK2 was 500 to 5000 nM each time.

With `C=C(c1ncnc2[nH]ccc12)C1CCCCC1` [Compound 12], the Ki at ROCK, at PKA and at JAK2 was 500 to 5000 nM in each case.
